According to patent US9782489B2, “MetAP-2 inhibitor polymersomes for therapeutic administration” (priority 2007, dated 2017):
Entries after “also recorded” stand apart in the source; their conditions may differ.

How the values were obtained:
[1] = post-administration; cited from earlier work
[2] = system: murine, human and metastatic tumors; details: mice; most studies 30 mg/kg subcutaneously every other day; cited from earlier work
obesity = details: mice; cited from earlier work
[3] = Balance beam motor coordination test (neurotoxicity); format: in vivo; details: 30 mg/kg q.o.d. for 14 d; Lodamin oral, free TNP-470 injected subcutaneously; vs water treated mice
Method: A slightly modified balance beam motor coordination test was performed on three groups of mice: Oral Lodamin treated mice (30 mg/kg eq. q.o.d.), free TNP-470 (30 mg/kg) subcutaneously injected mice and water treated mice (administered by gavage). The mice were pretreated for 14 d (n=4-5 per group) and then the mice were allowed to acclimate to the procedure room for 1 h, after which they were trained in 3 trials to cross a wide (20 mm width×1 m length) balance beam. All the mice crossed the wide beam without making foot-slip errors. The mice were then trained on a narrow (4 mm width×1 m length) beam for 3 trials. At the end of the training trials, no freezing behavior was observed, and the mice would start to walk within 4 seconds of being placed on the beam. The mice were then videotaped as they performed in 3 test trials of 3 beam crossings each—a total of 9 crossings per mouse. The 3 trials were separated by at least 1 h to avoid fatigue of the mice. Videotaped crossings were scored for number of foot-slip errors and time to cross. All experiments and scoring of the different groups were performed by an investigator who has been no knowledge regarding the treatment regime of the mice.

LLC tumors = assay: Oral Lodamin vs free TNP-470, primary Lewis lung carcinoma tumor experiments; format: in vivo, C57Bl/6J mice; details: 30 mg/kg q.o.d. oral (TNP-470 equivalent), day 18, FIG. 9A; listed as free TNP-470
Method: For tumor experiments: LLC cells (1×10^6) or B16/F10 melanoma cells (1×10^6) were implanted subcutaneously in 8 week old C57Bl/6J male mice (Jackson Laboratories, Bar Harbor, Me.). Oral availability of free TNP-470 was compared to that of Lodamin. A dose of 30 mg/kg q.o.d. of free TNP-470 and an equivalent dose of Lodamin (Lodamin, 6 mg in 100 μl/d) were administered to LLC tumor bearing mice (˜100 mm^3) and tumor growth was followed for 18 d. Free drug was given as a suspension in double distilled water and freshly prepared before each dose. Additionally, we compared different doses and frequencies of Lodamin treatment: 15 mg/kg q.d., 15 mg/kg q.o.d. and 30 mg/kg q.o.d. To eliminate any possible effect of the vehicle (polymer without drug) one group of mice was given micelles without drug and tumor progression was compared to water treated mice.
For the melanoma tumor experiment, a dose of 15 mg/kg q.d. Lodamin was administered to B16/F10 melanoma bearing mice. In all experiments, tumor size and animal weight were monitored every 2 d. Tumor volume was measured with calipers in two diameters as follows: (width)×(length)×0.52. Note that all the above Lodamin doses are presented as TNP-470 equivalent.

[4] = in vivo; cited from earlier work
[5] = high chemotherapeutic doses; cited from earlier work

6-O—(N-chloroacetylcarbamoyl) fumagillol [TNP-470]
time up to which detected in mice sera [1]: up to 2 h

COC1C(OC(=O)NC(=O)CCl)CCC2(CO2)C1[C@@]1(C)O[C@@H]1CC=C(C)C (stereo partly shown) [TNP-470, 6-O—(N-chloroacetylcarbamoyl) fumagillol]
inhibition of growth of human tumors [2]: up to 100%
inhibition of growth of metastatic tumors [2]: up to 100%
inhibition of growth of murine tumors [2]: up to 91%
effect on obesity (obesity): prevent diet-induced and genetic obesity
balance beam performance (foot-slip errors) [3]: over twice as many errors
inhibition of LLC tumor growth (LLC tumors): no inhibition; also recorded: no effect
plasma half-life of the drug [4]: a few minutes
plasma half-life of the metabolites [4]: less than 2 hr
adverse effects in patients [5]: neurotoxicity
